Columns and labels:
[1] = refractive index (Na D-line) (dimensionless); settings: 298.15 K; 101.33 kPa; Liquid; Standard Abbe refractometry
[2] = 298.15 K, 101.33 kPa, Liquid; for viscosity: Capillary tube (Ostwald / Ubbelohde) method; for mass density: Vibrating tube method
[3] = refractive index (Na D-line) (dimensionless); xn = mol fraction of the nth substance listed; settings: 298.15 K, 101.3 kPa, Liquid, Standard Abbe refractometry
[4] = xn = mol fraction of the nth substance listed; settings: 298.15 K, 101.3 kPa, Liquid; for viscosity: Capillary tube (Ostwald / Ubbelohde) method

CCCCCCCCn1cc[n+](C)c1.O=S(=O)([N-]S(=O)(=O)C(F)(F)F)C(F)(F)F
Settings | mass density [kg/m3] | refractive index | viscosity [mPa·s]
[1] | – | 1.43298 | –
[2] | 1320.59 | – | 92.51

CCCCCCCCn1cc[n+](C)c1.O=S(=O)([N-]S(=O)(=O)C(F)(F)F)C(F)(F)F + CCOC(C)=O
Settings | mass density, [4] [kg/m3] | refractive index, [3] | viscosity, [4] [mPa·s]
x2 = 0.0493 | 1314.93 | 1.43216 | 78.89
x2 = 0.1112 | 1307.34 | 1.43115 | 65.93
x2 = 0.1546 | 1301.55 | 1.43042 | 58.25
x2 = 0.2125 | 1293.1 | 1.4293 | 48.82
x2 = 0.3102 | 1276.6 | 1.42726 | 34.78
x2 = 0.404 | 1257.53 | 1.42453 | 24.15
x2 = 0.4779 | 1239.88 | 1.42219 | 17.54
x2 = 0.5967 | 1203.86 | 1.41721 | 9.795
x2 = 0.7035 | 1160.22 | 1.41123 | 5.384
x2 = 0.8233 | 1089.62 | 1.40097 | 2.284
x2 = 0.9016 | 1022.64 | 1.391 | 1.233

CCOC(C)=O [ethyl acetate] + CCO
Settings | mass density, [4] [kg/m3] | refractive index, [3] | viscosity, [4] [mPa·s]
x1 = 0.0941 | 800.65 | 1.36064 | 0.855
x1 = 0.1919 | 815.09 | 1.36193 | 0.692
x1 = 0.2836 | 827.27 | 1.36309 | 0.619
x1 = 0.4044 | 841.69 | 1.36447 | 0.541
x1 = 0.5014 | 852.05 | 1.36548 | 0.505
x1 = 0.6085 | 862.53 | 1.36649 | 0.467
x1 = 0.6949 | 870.3 | 1.36724 | 0.444
x1 = 0.7929 | 878.51 | 1.36811 | 0.436
x1 = 0.8957 | 886.6 | 1.36895 | 0.424

CCO [ethanol]
Settings | refractive index | viscosity [mPa·s]
[1] | 1.35928 | –
[2] | – | 1.054

CCOC(C)=O [ethyl acetate]
Settings | mass density [kg/m3] | refractive index | viscosity [mPa·s]
[1] | – | 1.36983 | –
[2] | 894.4 | – | 0.4256

CCCCCCCCn1cc[n+](C)c1.O=S(=O)([N-]S(=O)(=O)C(F)(F)F)C(F)(F)F + CCO
Settings | mass density, [4] [kg/m3] | refractive index, [3] | viscosity, [4] [mPa·s]
x2 = 0.0959 | 1311.29 | 1.43164 | 71.28
x2 = 0.1162 | 1309.17 | 1.43133 | 67.63
x2 = 0.1935 | 1300.29 | 1.43016 | 55.53
x2 = 0.2269 | 1296.02 | 1.42965 | 51.54
x2 = 0.3304 | 1280.78 | 1.42766 | 39.23
x2 = 0.4164 | 1265.19 | 1.42549 | 29.89
x2 = 0.5412 | 1235.17 | 1.42143 | 19.92
x2 = 0.6012 | 1216.21 | 1.41886 | 15.86
x2 = 0.7033 | 1173.46 | 1.41319 | 10.25
x2 = 0.8067 | 1106.85 | 1.40447 | 5.83
x2 = 0.8967 | 1010.5 | 1.39142 | 3.079

Reference: the NIST ThermoML archive (doi:10.1021/je800899w)
